# In patent US8802732B2, “Lycopene and resveratrol compositions for NK cell activation resulting in anti-neoplastic effect” (Hsiehs Biotech (Singapore) Pte Ltd, priority 2009, dated 2014):
# Assays:
# NK cells = assay: Cytotoxic activity of spleen NK cells from orally treated mice against B16 melanoma cells (LDH release); assay type: in vivo, Balb/c mice; conditions: oral daily for one week; lycopene 2 mg/day or resveratrol 4 mg/day
# Method: NK cells were isolated from Balb/c mice spleen. Each group of mice were killed at day 7 post-feeding of lycopene/resveratrol. The spleens were excised and soaked in 75% ethanol for 5 min, and smeared gently on cell sieves. The single cells were collected by flushing the sieve with RPMI-1640 medium. The derived total spleen cells were isolated by centrifugation at 2000 rpm by placing the mixture on the top of lymphocyte separation solution for 25 min. The white-colored lymphocyte layer was recovered carefully, and washed twice with serum-free RPMI-1640 medium, counted and transferred into 6-well plates as the stock. The lymphocytes thus prepared contains 10-20% of NK cells, and used for NK cell assay [Ref. 18: Zhang (2006)].
# The B16 melanoma was excised from a tumor-bearing C57 mouse, and soaked in Hank's medium for 30 min. The adipose and necrotic parts of the tumor were removed, and the tumor was cut into small pieces and treated with RPMI-1640 containing 0.1% type II […] at 4° C. for 12 h. […]
# NK cells isolated from mice spleen were mixed with B16 melanoma cells at ratios of 25:1, 50:1 and 100:1, and incubated at 37° C. After 5 h, the lactate dehydrogenase (LDH) activities in 100 μl of culture media were measured as the cytolytic activity of NK cells. Cytotoxicity is calculated according to the following formula. […]
# [1] = cited from earlier work
SMILES,NK cytotoxicity change versus control (NK cells),"anti-oxidative activity, higher than vitamin E ([1]; relative to vitamin E)","anti-oxidative activity, higher than β-carotene ([1]; relative to β-carotene)"
Oc1ccc(C=Cc2cc(O)cc(O)c2)cc1 [resveratrol],slight increase (not significantly),,
CC(C)=CCC/C(C)=C/C=C/C(C)=C/C=C/C(C)=C/C=C/C=C(C)/C=C/C=C(C)/C=C/C=C(\C)CCC=C(C)C [lycopene],slight increase (not significantly),100 folds,3.2 folds
